We go through 17 molecules from patent US20250122219A1 (priority 2023, published 2025).

Molecules are shown by their SMILES.

The subject of one data set is HIV-1 (IIIB). As to the kind of experiment: Antiviral assay in MT-4 cells. The class given is cell-based. The settings on record: Human immunodeficiency virus 1, MT4, 120 h; HIV-1 IIIB in MT-4 cells, 5 days incubation, Cell Titer Glo; read-out: MT4 EC50. In short, it runs like this: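 HIV-1 IIIB-infected MT-4 cells (fresh 1:250 virus stock dilution; mock-infected controls) incubated 5 days at 37 °C with serially diluted compounds in RPMI/10% FBS; 5 μM AZT as positive control. Cell viability read by CellTiter-Glo luminescence as measure of protection from viral replication.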
A general note: ATP-based viability assays read luminescence as a measure of living cells.

Data set [1] in a line: Cytotoxicity assay in MT-4 cells. The settings on record: human; uninfected MT-4 cells, 5 days incubation, Cell Titer Glo; read-out: MT4 CC50. It counts as cell-based. Summed up:
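Uninfected MT-4 cells exposed to serially diluted compounds in RPMI with 10% FBS for 5 days at 37 °C. Viability by Cell Titer Glo chemiluminescence. Puromycin […] as baseline cytotoxicity control.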

In general, EC50 refers to the concentration needed to bring the measured effect to its halfway point. One may read the CC50 as the concentration that lowers cell viability or growth by half. Turning to `CCCCCCCCCC(=O)Oc1c2n(cc(C(=O)NCc3ccc(F)cc3F)c1=O)[C@@H]1CN(C2=O)[C@@H](C)CC[C@]12CC(OC)=NO2` [Example 44, (3′S,5S,7′R)-10′-((2,4-difluorobenzyl)carbamoyl)-3-methoxy-3′-methyl-1′,11′-dioxo-1′,4′,5′,11′-tetrahydro-3′H,4H,7′H-spiro[isoxazole-5,6′-[2,7]methanopyrido[1,2-a][1,4]diazonin]-12′-yl decanoate], in the data set on HIV-1 (IIIB), the EC50 was determined as 0.000477 µM. In data set [1], the CC50 at 5 days worked out at 24.5 µM.

In the case of `CCCCCCCCCC(=O)Oc1c2n(cc(C(=O)NCc3ccc(F)cc3F)c1=O)[C@@H]1CN(C2=O)[C@@H](C)CC[C@]12CC(C)=NO2` [Example 45, (3′S,5S,7′R)-10′-((2,4-difluorobenzyl)carbamoyl)-3,3′-dimethyl-1′,11′-dioxo-1′,4′,5′,11′-tetrahydro-3′H,4H,7′H-spiro[isoxazole-5,6′-[2,7]methanopyrido[1,2-a][1,4]diazonin]-12′-yl decanoate], in the data set on HIV-1 (IIIB), the EC50 came to 0.000373 µM. In data set [1], the cytotoxic concentration (CC50) at 5 days was 22.2 µM.

As to `CCCCCCCCCCCC(=O)Oc1c2n(cc(C(=O)NCc3ccc(F)cc3F)c1=O)[C@@H]1CN(C2=O)[C@@H](C)CC[C@]12CC(OC)=NO2` [Example 46, (3′S,5S,7′R)-10′-((2,4-difluorobenzyl)carbamoyl)-3-methoxy-3′-methyl-1′,11′-dioxo-1′,4′,5′,11′-tetrahydro-3′H,4H,7′H-spiro[isoxazole-5,6′-[2,7]methanopyrido[1,2-a][1,4]diazonin]-12′-yl dodecanoate], the concentration for a half-maximal effect (EC50) with HIV-1 (IIIB) is 0.00206 µM. The CC50 at 5 days in data set [1] is 36.2 µM.

On to `CCCCCCCCCCCC(=O)Oc1c2n(cc(C(=O)NCc3ccc(F)cc3F)c1=O)[C@@H]1CN(C2=O)[C@@H](C)CC[C@]12CC(C)=NO2` [Example 47, (3′S,5S,7′R)-10′-((2,4-difluorobenzyl)carbamoyl)-3,3′-dimethyl-1′,11′-dioxo-1′,4′,5′,11′-tetrahydro-3′H,4H,7′H-spiro[isoxazole-5,6′-[2,7]methanopyrido[1,2-a][1,4]diazonin]-12′-yl dodecanoate], for which the EC50 in the data set with HIV-1 (IIIB) was found to be 0.00201 µM. The CC50 at 5 days in data set [1] is 22.6 µM.

On to `COC1=NO[C@@]2(CC[C@H](C)N3C[C@H]2n2cc(C(=O)NCc4ccc(F)cc4F)c(=O)c(OC(=O)C4CCCC4)c2C3=O)C1` [Example 52, (3′S,5S,7′R)-10′-((2,4-difluorobenzyl)carbamoyl)-3-methoxy-3′-methyl-1′,11′-dioxo-1′,4′,5′,11′-tetrahydro-3′H,4H,7′H-spiro[isoxazole-5,6′-[2,7]methanopyrido[1,2-a][1,4]diazonin]-12′-yl cyclopentanecarboxylate], for which the EC50 in the data set with HIV-1 (IIIB) is 0.000604 µM. In addition, in data set [1], the half-maximal cytotoxic concentration (CC50) at 5 days was 24.7 µM.

Take `CC1=NO[C@@]2(CC[C@H](C)N3C[C@H]2n2cc(C(=O)NCc4ccc(F)cc4F)c(=O)c(OC(=O)C4CCCC4)c2C3=O)C1` [Example 53, (3′S,5S,7′R)-10′-((2,4-difluorobenzyl)carbamoyl)-3,3′-dimethyl-1′,11′-dioxo-1′,4′,5′,11′-tetrahydro-3′H,4H,7′H-spiro[isoxazole-5,6′-[2,7]methanopyrido[1,2-a][1,4]diazonin]-12′-yl cyclopentanecarboxylate]: in the data set with HIV-1 (IIIB), the 50% effective concentration (EC50) was determined as 0.00144 µM. In data set [1], the half-maximal cytotoxic concentration (CC50) at 5 days is 24.4 µM.

Consider `COC1=NO[C@@]2(CC[C@H](C)N3C[C@H]2n2cc(C(=O)NCc4ccc(F)cc4F)c(=O)c(OC(=O)CC(C)C)c2C3=O)C1` [Example 54, (3′S,5S,7′R)-10′-((2,4-difluorobenzyl)carbamoyl)-3-methoxy-3′-methyl-1′,11′-dioxo-1′,4′,5′,11′-tetrahydro-3′H,4H,7′H-spiro[isoxazole-5,6′-[2,7]methanopyrido[1,2-a][1,4]diazonin]-12′-yl 3-methylbutanoate], for which the 50% effective concentration (EC50) in the data set with HIV-1 (IIIB) is 0.000504 µM. Besides, the CC50 at 5 days in data set [1] turned out to be 19.4 µM.

As for `CC1=NO[C@@]2(CC[C@H](C)N3C[C@H]2n2cc(C(=O)NCc4ccc(F)cc4F)c(=O)c(OC(=O)CC(C)C)c2C3=O)C1` [Example 55, (3′S,5S,7′R)-10′-((2,4-difluorobenzyl)carbamoyl)-3,3′-dimethyl-1′,11′-dioxo-1′,4′,5′,11′-tetrahydro-3′H,4H,7′H-spiro[isoxazole-5,6′-[2,7]methanopyrido[1,2-a][1,4]diazonin]-12′-yl 3-methylbutanoate], in the data set on HIV-1 (IIIB), the EC50 is 0.000313 µM. The CC50 at 5 days in data set [1] amounted to 16.4 µM.

With `COC1=NO[C@@]2(CC[C@H](C)N3C[C@H]2n2cc(C(=O)NCc4ccc(F)cc4F)c(=O)c(OC(=O)CCC(C)C)c2C3=O)C1` [Example 56, (3′S,5S,7′R)-10′-((2,4-difluorobenzyl)carbamoyl)-3-methoxy-3′-methyl-1′,11′-dioxo-1′,4′,5′,11′-tetrahydro-3′H,4H,7′H-spiro[isoxazole-5,6′-[2,7]methanopyrido[1,2-a][1,4]diazonin]-12′-yl 4-methylpentanoate], the EC50 with HIV-1 (IIIB) stood at 0.00124 µM. For the same molecule, in data set [1], the CC50 at 5 days was determined as 34.7 µM.

On to `CC1=NO[C@@]2(CC[C@H](C)N3C[C@H]2n2cc(C(=O)NCc4ccc(F)cc4F)c(=O)c(OC(=O)CCC(C)C)c2C3=O)C1` [Example 57, (3′S,5S,7′R)-10′-((2,4-difluorobenzyl)carbamoyl)-3,3′-dimethyl-1′,11′-dioxo-1′,4′,5′,11′-tetrahydro-3′H,4H,7′H-spiro[isoxazole-5,6′-[2,7]methanopyrido[1,2-a][1,4]diazonin]-12′-yl 4-methylpentanoate], for which the EC50 in the data set with HIV-1 (IIIB) came out at 0.00154 µM. For the same molecule, the cytotoxic concentration (CC50) at 5 days in data set [1] is 23.1 µM.

As to `COC1=NO[C@@]2(CC[C@H](C)N3C[C@H]2n2cc(C(=O)NCc4ccc(F)cc4F)c(=O)c(OC(=O)CCC4CCCC4)c2C3=O)C1` [Example 58, (3′S,5S,7′R)-10′-((2,4-difluorobenzyl)carbamoyl)-3-methoxy-3′-methyl-1′,11′-dioxo-1′,4′,5′,11′-tetrahydro-3′H,4H,7′H-spiro[isoxazole-5,6′-[2,7]methanopyrido[1,2-a][1,4]diazonin]-12′-yl 3-cyclopentylpropanoate], the 50% effective concentration (EC50) in the data set with HIV-1 (IIIB) was 0.000284 µM. For the same molecule, the CC50 at 5 days in data set [1] turned out to be 23.9 µM.

For the molecule `CC1=NO[C@@]2(CC[C@H](C)N3C[C@H]2n2cc(C(=O)NCc4ccc(F)cc4F)c(=O)c(OC(=O)CCC4CCCC4)c2C3=O)C1` [Example 59, (3′S,5S,7′R)-10′-((2,4-difluorobenzyl)carbamoyl)-3,3′-dimethyl-1′,11′-dioxo-1′,4′,5′,11′-tetrahydro-3′H,4H,7′H-spiro[isoxazole-5,6′-[2,7]methanopyrido[1,2-a][1,4]diazonin]-12′-yl 3-cyclopentylpropanoate], the EC50 in the data set on HIV-1 (IIIB) is 0.000459 µM. The cytotoxic concentration (CC50) at 5 days in data set [1] worked out at 15.4 µM.

Take `COC1=NO[C@@]2(CC[C@H](C)N3C[C@H]2n2cc(C(=O)NCc4ccc(F)cc4F)c(=O)c(OC(=O)CCCC(C)C)c2C3=O)C1` [Example 60, (3′S,5S,7′R)-10′-((2,4-difluorobenzyl)carbamoyl)-3-methoxy-3′-methyl-1′,11′-dioxo-1′,4′,5′,11′-tetrahydro-3′H,4H,7′H-spiro[isoxazole-5,6′-[2,7]methanopyrido[1,2-a][1,4]diazonin]-12′-yl 5-methylhexanoate]: the EC50 with HIV-1 (IIIB) came out at 0.000539 µM. Further, in data set [1], the CC50 at 5 days stood at 21 µM.

As for `CC1=NO[C@@]2(CC[C@H](C)N3C[C@H]2n2cc(C(=O)NCc4ccc(F)cc4F)c(=O)c(OC(=O)CCCC(C)C)c2C3=O)C1` [Example 61, (3′S,5S,7′R)-10′-((2,4-difluorobenzyl)carbamoyl)-3,3′-dimethyl-1′,11′-dioxo-1′,4′,5′,11′-tetrahydro-3′H,4H,7′H-spiro[isoxazole-5,6′-[2,7]methanopyrido[1,2-a][1,4]diazonin]-12′-yl 5-methylhexanoate], the concentration for a half-maximal effect (EC50) in the data set with HIV-1 (IIIB) was determined as 0.000733 µM. Also, in data set [1], the CC50 at 5 days came out at 20.6 µM.

Take `COC1=NO[C@@]2(CC[C@H](C)N3C[C@H]2n2cc(C(=O)NCc4ccc(F)cc4F)c(=O)c(OC(=O)CCCCCC(C)C)c2C3=O)C1` [Example 64, (3′S,5S,7′R)-10′-((2,4-difluorobenzyl)carbamoyl)-3-methoxy-3′-methyl-1′,11′-dioxo-1′,4′,5′,11′-tetrahydro-3′H,4H,7′H-spiro[isoxazole-5,6′-[2,7]methanopyrido[1,2-a][1,4]diazonin]-12′-yl 7-methyloctanoate]: the EC50 in the data set with HIV-1 (IIIB) stood at 0.00248 µM. Besides, the cytotoxic concentration (CC50) at 5 days in data set [1] turned out to be 38.1 µM.

On to `CC1=NO[C@@]2(CC[C@H](C)N3C[C@H]2n2cc(C(=O)NCc4ccc(F)cc4F)c(=O)c(OC(=O)CCCCCC(C)C)c2C3=O)C1` [Example 65, (3′S,5S,7′R)-10′-((2,4-difluorobenzyl)carbamoyl)-3,3′-dimethyl-1′,11′-dioxo-1′,4′,5′,11′-tetrahydro-3′H,4H,7′H-spiro[isoxazole-5,6′-[2,7]methanopyrido[1,2-a][1,4]diazonin]-12′-yl 7-methyloctanoate], for which the concentration for a half-maximal effect (EC50) with HIV-1 (IIIB) is 0.00301 µM. Also, in data set [1], the CC50 at 5 days was 21.8 µM.

For `COC1=NO[C@@]2(CC[C@H](C)N3C[C@H]2n2cc(C(=O)NCc4ccc(F)cc4F)c(=O)c(OC(=O)CCCCCCC(C)C)c2C3=O)C1` [Example 66, (3′S,5S,7′R)-10′-((2,4-difluorobenzyl)carbamoyl)-3-methoxy-3′-methyl-1′,11′-dioxo-1′,4′,5′,11′-tetrahydro-3′H,4H,7′H-spiro[isoxazole-5,6′-[2,7]methanopyrido[1,2-a][1,4]diazonin]-12′-yl 8-methylnonanoate], the EC50 in the data set on HIV-1 (IIIB) turned out to be 0.000316 µM. Further, the CC50 at 5 days in data set [1] was 22.3 µM.
